The Ki is the dissociation constant of the complex between target and ligand, obtained from inhibition or displacement.

The text below walks through data of US7169800B2, “Imidazole compositions useful as inhibitors of protein kinases” (Vertex Pharmaceuticals Incorporated, priority 2003, dated 2007).

SMILES strings stand for the structures.

Holding throughout (type): biochemical
In one test the target is c-Met (Homo sapiens, UniProt P08581). Nature of the test: Ki determination for the inhibition of c-Met (coupled enzyme system). To be noted: 200 μM ATP, 10 μM polyGluTyr, 80 nM c-Met, 30° C. The protocol:
Compounds were screened for their ability to inhibit c-Met kinase activity using a standard coupled enzyme system (Fox et al., Protein Sci. 1998, 7, 2249). Reactions were carried out in a solution containing 100 mM HEPES (pH 7.5), 10 mM MgCl2, 25 mM NaCl, 300 μM NADH, 1 mM DTT, and 1.5% DMSO. Final substrate concentrations in the assay were 200 μM ATP (Sigma Chemicals, St Louis, Mo.) and 10 μM polyGluTyr (Sigma Chemical Company, St. Louis). Reactions were carried out at 30° C. and 80 nM c-Met. Final concentrations of the components of the coupled enzyme system were 2.5 mM phosphoenolpyruvate, 300 μM NADH, 30 μg/ml pyruvate kinase and 10 μg/ml lactate dehydrogenase.
An assay stock buffer solution was prepared containing all of the reagents listed above with the exception of ATP and a test compound of the present invention. The assay stock buffer solution (175 μl) was incubated in a 96 well plate with 5 μl of the test compound of the present invention at final concentrations spanning 0.006 μM to 12.5 μM at 30° C. for 10 minutes. […] Rates of reaction were obtained using a Molecular Devices Spectramax plate reader (Sunnyvale, Calif.) over 10 minutes at 30° C. The Ki values were determined from the rate data as a function of inhibitor concentration.

For another test, the target named is T1, JAK3 (Homo sapiens, UniProt P52333).
T1 sequence (P52333 1-1124): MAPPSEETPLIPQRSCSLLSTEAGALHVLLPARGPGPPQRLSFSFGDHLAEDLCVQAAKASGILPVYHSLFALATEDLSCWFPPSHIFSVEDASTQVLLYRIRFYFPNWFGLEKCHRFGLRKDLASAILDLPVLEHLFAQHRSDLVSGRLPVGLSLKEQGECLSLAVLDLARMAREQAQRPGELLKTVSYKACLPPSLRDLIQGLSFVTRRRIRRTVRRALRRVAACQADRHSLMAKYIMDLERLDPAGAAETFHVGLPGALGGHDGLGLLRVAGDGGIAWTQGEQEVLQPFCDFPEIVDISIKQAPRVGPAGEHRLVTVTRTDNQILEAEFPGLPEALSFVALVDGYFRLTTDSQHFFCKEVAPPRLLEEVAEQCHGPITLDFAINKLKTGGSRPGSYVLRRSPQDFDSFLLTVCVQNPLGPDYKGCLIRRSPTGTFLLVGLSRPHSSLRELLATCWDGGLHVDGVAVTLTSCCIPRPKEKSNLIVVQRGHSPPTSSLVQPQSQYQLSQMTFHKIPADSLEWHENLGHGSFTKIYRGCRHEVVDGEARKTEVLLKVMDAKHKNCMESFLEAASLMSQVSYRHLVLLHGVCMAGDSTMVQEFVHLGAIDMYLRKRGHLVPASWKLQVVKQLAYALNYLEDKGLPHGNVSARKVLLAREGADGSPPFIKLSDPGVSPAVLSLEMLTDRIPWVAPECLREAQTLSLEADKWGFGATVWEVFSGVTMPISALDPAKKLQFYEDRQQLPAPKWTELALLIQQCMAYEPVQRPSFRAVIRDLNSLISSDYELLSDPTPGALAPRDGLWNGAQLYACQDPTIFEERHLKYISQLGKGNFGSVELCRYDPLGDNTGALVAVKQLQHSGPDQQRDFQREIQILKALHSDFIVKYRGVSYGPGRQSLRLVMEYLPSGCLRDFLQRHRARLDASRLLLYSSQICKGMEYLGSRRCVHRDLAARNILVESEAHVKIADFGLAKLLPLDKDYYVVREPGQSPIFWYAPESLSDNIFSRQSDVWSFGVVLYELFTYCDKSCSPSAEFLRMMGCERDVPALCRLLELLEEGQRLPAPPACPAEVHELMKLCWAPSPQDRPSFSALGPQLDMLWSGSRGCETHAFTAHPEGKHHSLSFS
Put plainly: JAK3 inhibition assay (33P incorporation). The settings on record: 5 uM ATP, 1 uM poly(Glu)4Tyr, 1 nM JAK3, 25C. On the procedure:
• kinase buffer: (100 mM HEPES pH 7.4; 1 mM DTT; 10 mM MgCl2; 25 mM NaCl; and 0.01% BSA) • 1 nM JAK3 (enzyme) • 1 uM poly(Glu)4Tyr (substrate) • 5 uM ATP (substrate, 200 uCi/umole ATP) Procedure
To each well of a 96 well polycarbonate plate is added 1.5 ul of a candidate JAK3 inhibitor along with 50 ul of kinase buffer containing 2 uM poly(Glu)4Tyr and 10 uM ATP. This is then mixed and 50 ul of kinase buffer containing 2 nM JAK3 enzyme is added to start the reaction. After 20 minutes at room temperature (25C), the reaction is stopped with 50 ul of 20% trichloroacetic acid (TCA) that also contains 0.4 mM ATP. The entire content of each well is then transferred to a 96 well glass fiber filter plate using a TomTek Cell Harvester. After washing, 60 ul of scintillation fluid is added and 33P incorporation detected on a Perkin Elmer TopCount.

In a further test the target is KDR (Homo sapiens, UniProt P35968). Nature of the test: KDR enzyme assay (coupled enzyme assay). To be noted: 300 μM ATP, 10 μM poly E4Y, 30 nM KDR, 37° C.; read-out: Ki value, inhibition of KDR. On the procedure:
Compounds were screened for their ability to inhibit KDR using a standard coupled enzyme assay (Fox et al., Protein Sci., (1998) 7, 2249). Assays were carried out in a mixture of 200 mM HEPES 7.5, 10 mM MgCl2, 25 mM NaCl, 1 mM DTT and 1.5% DMSO. Final substrate concentrations in the assay were 300 μM ATP (Sigma Chemicals) and 10 μM poly E4Y (Sigma). Assays were carried out at 37° C. and 30 nM KDR. Final concentrations of the components of the coupled enzyme system were 2.5 mM phosphoenolpyruvate, 200 μM NADH, 30 μg/ML pyruvate kinase and 10 μg/ml lactate dehydrogenase.
An assay stock buffer solution was prepared containing all of the reagents listed above, with the exception of ATP and the test compound of interest. 177 μl of the stock solution was placed in a 96 well plate followed by addition of 3 μl of 2 mM DMSO stock containing the test compound (final compound concentration 30 μM). The plate was preincubated for about 10 minutes at 37° C. and the reaction initiated by addition of 20 μl of ATP (final concentration 300 μM). Rates of reaction were obtained using a Molecular Devices plate reader (Sunnyvale, Calif.) over a 5 minute read time at 37° C.

Sequence of KDR (P35968 20-1356): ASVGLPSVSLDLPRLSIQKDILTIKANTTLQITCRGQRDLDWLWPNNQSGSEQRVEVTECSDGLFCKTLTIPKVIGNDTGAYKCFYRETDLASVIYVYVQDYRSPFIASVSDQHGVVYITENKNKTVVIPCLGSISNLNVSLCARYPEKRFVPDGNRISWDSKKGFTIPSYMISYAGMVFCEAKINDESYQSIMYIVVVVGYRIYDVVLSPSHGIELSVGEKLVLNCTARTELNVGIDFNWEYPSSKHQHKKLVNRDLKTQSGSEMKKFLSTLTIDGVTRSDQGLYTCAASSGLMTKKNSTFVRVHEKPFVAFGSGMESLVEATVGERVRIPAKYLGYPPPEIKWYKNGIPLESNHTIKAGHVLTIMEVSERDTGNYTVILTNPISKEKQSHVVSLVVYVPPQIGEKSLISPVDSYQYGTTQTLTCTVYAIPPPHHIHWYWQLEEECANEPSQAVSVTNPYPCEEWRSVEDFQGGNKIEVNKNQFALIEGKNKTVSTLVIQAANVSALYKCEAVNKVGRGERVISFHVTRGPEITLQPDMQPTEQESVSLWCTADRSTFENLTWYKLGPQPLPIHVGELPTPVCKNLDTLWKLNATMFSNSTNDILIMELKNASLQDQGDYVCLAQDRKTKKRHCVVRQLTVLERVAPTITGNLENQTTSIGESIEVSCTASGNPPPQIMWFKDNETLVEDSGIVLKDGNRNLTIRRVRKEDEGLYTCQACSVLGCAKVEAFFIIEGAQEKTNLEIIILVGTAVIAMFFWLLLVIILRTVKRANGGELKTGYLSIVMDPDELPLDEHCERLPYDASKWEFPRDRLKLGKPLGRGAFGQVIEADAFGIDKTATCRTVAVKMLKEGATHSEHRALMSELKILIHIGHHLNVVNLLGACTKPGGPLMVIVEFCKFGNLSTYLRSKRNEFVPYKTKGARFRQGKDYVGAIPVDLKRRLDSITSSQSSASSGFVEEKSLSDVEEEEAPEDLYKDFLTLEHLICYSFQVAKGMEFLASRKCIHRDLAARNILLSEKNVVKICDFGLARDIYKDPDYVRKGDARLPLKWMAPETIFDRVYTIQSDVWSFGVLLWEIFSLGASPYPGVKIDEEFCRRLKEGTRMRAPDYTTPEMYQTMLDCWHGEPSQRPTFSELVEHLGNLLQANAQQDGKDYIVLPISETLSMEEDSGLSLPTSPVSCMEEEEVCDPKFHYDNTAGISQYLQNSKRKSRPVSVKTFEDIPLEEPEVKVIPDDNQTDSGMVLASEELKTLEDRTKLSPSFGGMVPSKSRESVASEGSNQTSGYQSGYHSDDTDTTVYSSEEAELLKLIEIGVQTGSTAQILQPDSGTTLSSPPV
Sequence of c-Met (P08581 25-1390): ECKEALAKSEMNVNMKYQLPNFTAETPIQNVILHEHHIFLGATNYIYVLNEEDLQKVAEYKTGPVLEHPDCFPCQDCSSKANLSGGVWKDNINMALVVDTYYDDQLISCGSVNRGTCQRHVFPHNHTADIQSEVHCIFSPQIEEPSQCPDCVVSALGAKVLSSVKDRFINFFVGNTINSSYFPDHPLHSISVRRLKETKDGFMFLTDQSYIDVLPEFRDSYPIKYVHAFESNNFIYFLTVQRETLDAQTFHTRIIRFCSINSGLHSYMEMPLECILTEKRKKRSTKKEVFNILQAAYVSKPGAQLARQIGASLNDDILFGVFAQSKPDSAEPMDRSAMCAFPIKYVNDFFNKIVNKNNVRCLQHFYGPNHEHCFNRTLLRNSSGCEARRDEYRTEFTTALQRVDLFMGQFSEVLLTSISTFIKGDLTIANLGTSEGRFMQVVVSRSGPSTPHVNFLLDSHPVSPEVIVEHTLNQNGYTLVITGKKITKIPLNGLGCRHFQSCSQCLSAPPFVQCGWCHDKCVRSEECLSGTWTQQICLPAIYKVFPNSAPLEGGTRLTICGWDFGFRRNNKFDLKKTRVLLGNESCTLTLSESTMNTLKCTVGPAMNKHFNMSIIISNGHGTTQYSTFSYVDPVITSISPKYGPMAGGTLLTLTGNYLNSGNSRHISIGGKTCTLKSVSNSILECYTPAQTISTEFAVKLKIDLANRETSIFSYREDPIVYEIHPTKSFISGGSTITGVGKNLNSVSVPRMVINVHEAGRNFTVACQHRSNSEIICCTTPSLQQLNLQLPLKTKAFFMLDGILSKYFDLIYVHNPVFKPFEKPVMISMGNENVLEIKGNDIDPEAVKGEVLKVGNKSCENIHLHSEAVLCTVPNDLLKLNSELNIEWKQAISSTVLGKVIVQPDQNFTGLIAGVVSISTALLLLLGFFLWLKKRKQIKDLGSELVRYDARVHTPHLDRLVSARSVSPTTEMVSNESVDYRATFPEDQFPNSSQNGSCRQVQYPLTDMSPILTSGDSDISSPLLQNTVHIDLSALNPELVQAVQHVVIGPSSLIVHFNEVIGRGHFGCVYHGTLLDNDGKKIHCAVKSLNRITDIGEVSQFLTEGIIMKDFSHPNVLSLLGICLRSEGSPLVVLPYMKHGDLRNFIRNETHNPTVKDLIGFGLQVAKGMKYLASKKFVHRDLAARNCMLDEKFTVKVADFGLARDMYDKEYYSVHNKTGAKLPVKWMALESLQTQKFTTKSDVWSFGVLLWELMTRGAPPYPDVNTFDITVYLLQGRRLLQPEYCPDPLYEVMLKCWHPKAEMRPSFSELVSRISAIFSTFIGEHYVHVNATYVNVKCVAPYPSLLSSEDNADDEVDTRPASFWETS

With `O=C(c1nc(-c2oncc2-c2cccc(F)c2F)c[nH]1)N1CC=CC1` [Compound I-38, {4-[4-(2,3-Difluoro-phenyl)-isoxazol-5-yl]-1H-imidazol-2-yl}-(2,5-dihydro-pyrrol-1-yl)-methanone], the Ki is less than 1000 nM at c-Met, less than 1000 nM on JAK3 and less than 5000 nM on KDR.
